PubChem BioAssay AID1259407 (Chemical Carcinogenesis Research Information System (CCRIS), 2018)
Calls of active or inactive are those of the source. How the calls were made is not given here.

Tested on: CCRIS mutagenicity, Ames/micronucleus/aberration tests
Test: CCRIS mutagenicity studies
[1] = Test System: AMES SALMONELLA TYPHIMURIUM, Strain/Indicator: TA98, Metabolic Activation: HAMSTER, LIVER, S-9, AROCLOR 1254 (30%), Method: PREINCUBATION
[2] = Test System: AMES SALMONELLA TYPHIMURIUM, Strain/Indicator: TA98, Metabolic Activation: NONE, Method: PREINCUBATION
[3] = Test System: AMES SALMONELLA TYPHIMURIUM, Strain/Indicator: TA98, Metabolic Activation: NONE, Method: STANDARD PLATE
[4] = Test System: AMES SALMONELLA TYPHIMURIUM, Strain/Indicator: TA98, Metabolic Activation: RAT, LIVER, S-9, AROCLOR 1254 (30%), Method: PREINCUBATION
[5] = Test System: AMES SALMONELLA TYPHIMURIUM, Strain/Indicator: TA100, Metabolic Activation: HAMSTER, LIVER, S-9, AROCLOR 1254 (30%), Method: PREINCUBATION
[6] = Test System: AMES SALMONELLA TYPHIMURIUM, Strain/Indicator: TA100, Metabolic Activation: NONE, Method: PREINCUBATION
[7] = Test System: AMES SALMONELLA TYPHIMURIUM, Strain/Indicator: TA100, Metabolic Activation: NONE, Method: STANDARD PLATE
[8] = Test System: AMES SALMONELLA TYPHIMURIUM, Strain/Indicator: TA100, Metabolic Activation: RAT, LIVER, S-9, AROCLOR 1254 (30%), Method: PREINCUBATION
[9] = Test System: AMES SALMONELLA TYPHIMURIUM, Strain/Indicator: TA100, Metabolic Activation: RAT, LIVER, S-9, AROCLOR 1254, Method: STANDARD PLATE
[10] = Test System: AMES SALMONELLA TYPHIMURIUM, Strain/Indicator: TA1535, Metabolic Activation: NONE, Method: STANDARD PLATE
[11] = Test System: AMES SALMONELLA TYPHIMURIUM, Strain/Indicator: TA1537, Metabolic Activation: NONE, Method: STANDARD PLATE
[12] = Test System: AMES SALMONELLA TYPHIMURIUM, Strain/Indicator: TA1537, Metabolic Activation: RAT, LIVER, S-9, AROCLOR 1254, Method: STANDARD PLATE

SMILES: c1ccc(Nc2ccc(Nc3ccccc3)cc2)cc1
- mutagenic call (End Point: IN VITRO CHROMOSOMAL ABERRATIONS, Test System: CHINESE HAMSTER LUNG CELLS (CHL), Metabolic Activation: RAT, LIVER, S-9, KC-400): inactive; negative
- mutagenic call (End Point: IN VITRO CHROMOSOMAL ABERRATIONS, Test System: CHINESE HAMSTER OVARY CELLS (CHO), Metabolic Activation: NONE): inactive; negative
- mutagenic call (End Point: IN VITRO CHROMOSOMAL ABERRATIONS, Test System: CHINESE HAMSTER OVARY CELLS (CHO), Metabolic Activation: RAT, LIVER, S-9, AROCLOR 1254): inactive; negative
- mutagenic call (End Point: IN VITRO CHROMOSOMAL ABERRATIONS, Test System: CHL CELLS, Metabolic Activation: RAT, LIVER, S-9, SODIUM PHENOBARBITAL AND 5,6-BENZOFLAVONE): inactive; negative; authors report equivocal results for structural changes at 0.08 and 0.
- mutagenic call [1]: active; positive
- mutagenic call [2]: inactive; negative
- mutagenic call [3]: inactive; negative
- mutagenic call [4]: active; positive
- mutagenic call (Test System: AMES SALMONELLA TYPHIMURIUM, Strain/Indicator: TA98, Metabolic Activation: S-9, Method: STANDARD PLATE): inactive; negative
- mutagenic call [5]: inactive; negative
- mutagenic call [6]: inactive; negative
- mutagenic call [7]: inactive; negative
- mutagenic call [8]: inactive; negative
- mutagenic call (Test System: AMES SALMONELLA TYPHIMURIUM, Strain/Indicator: TA100, Metabolic Activation: S-9, Method: STANDARD PLATE): inactive; negative

SMILES: COc1cccc2c1cc1c3c(cc4c(c32)OCO4)C(=O)N1
- mutagenic call (Test System: AMES SALMONELLA TYPHIMURIUM, Strain/Indicator: D3052, Metabolic Activation: NONE, Method: STANDARD PLATE): inactive; negative
- mutagenic call (Test System: AMES SALMONELLA TYPHIMURIUM, Strain/Indicator: D3052, Metabolic Activation: RAT, LIVER, S-9, PHENOBARBITAL, Method: STANDARD PLATE): inactive; negative
- mutagenic call (Test System: AMES SALMONELLA TYPHIMURIUM, Strain/Indicator: G46, Metabolic Activation: NONE, Method: STANDARD PLATE): inactive; negative
- mutagenic call (Test System: AMES SALMONELLA TYPHIMURIUM, Strain/Indicator: G46, Metabolic Activation: RAT, LIVER, S-9, PHENOBARBITAL, Method: STANDARD PLATE): inactive; negative
- mutagenic call [3]: inactive; negative
- mutagenic call (Test System: AMES SALMONELLA TYPHIMURIUM, Strain/Indicator: TA98, Metabolic Activation: RAT, LIVER, S-9, PHENOBARBITAL, Method: STANDARD PLATE): inactive; negative
- mutagenic call [7]: inactive; negative
- mutagenic call [9]: active; positive
- mutagenic call (Test System: AMES SALMONELLA TYPHIMURIUM, Strain/Indicator: TA100, Metabolic Activation: RAT, LIVER, S-9, PHENOBARBITAL, Method: STANDARD PLATE): inactive; negative
- mutagenic call [10]: inactive; negative
- mutagenic call (Test System: AMES SALMONELLA TYPHIMURIUM, Strain/Indicator: TA1535, Metabolic Activation: RAT, LIVER, S-9, PHENOBARBITAL, Method: STANDARD PLATE): inactive; negative
- mutagenic call [11]: inactive; negative
- mutagenic call [12]: active; positive
- mutagenic call (Test System: AMES SALMONELLA TYPHIMURIUM, Strain/Indicator: TA1978, Metabolic Activation: NONE, Method: STANDARD PLATE): inactive; negative
- mutagenic call (Test System: AMES SALMONELLA TYPHIMURIUM, Strain/Indicator: TA1978, Metabolic Activation: RAT, LIVER, S-9, PHENOBARBITAL, Method: STANDARD PLATE): inactive; negative
- mutagenic call (Test System: AMES SALMONELLA TYPHIMURIUM, Strain/Indicator: TM677/8-AZAGUANINE, Metabolic Activation: NONE, Method: SUSPENSION/PLATE): inactive; negative

SMILES: CNc1ccc2ncc(-c3ccccc3)nc2c1C
- mutagenic call [2]: inactive; negative
- mutagenic call (Test System: AMES SALMONELLA TYPHIMURIUM, Strain/Indicator: TA98, Metabolic Activation: RAT, LIVER, S-9, PCB, Method: PREINCUBATION): active; positive
- mutagenic call [6]: inactive; negative
- mutagenic call (Test System: AMES SALMONELLA TYPHIMURIUM, Strain/Indicator: TA100, Metabolic Activation: RAT, LIVER, S-9, PCB, Method: PREINCUBATION): active; positive

SMILES: Cc1cc2c(O)cccc2c2cc3ccccc3cc12
- mutagenic call (Test System: AMES SALMONELLA TYPHIMURIUM, Strain/Indicator: TA100, Metabolic Activation: RAT, LIVER, S-9, AROCLOR 1254, Method: PREINCUBATION): active; positive

SMILES: NC(=O)N/N=C(/CCN1CCCCC1)c1ccc([N+](=O)[O-])o1
- mutagenic call (Test System: E. COLI, Strain/Indicator: WP2, Metabolic Activation: NONE, Method: SPOT): active; positive
- mutagenic call (Test System: E. COLI, Strain/Indicator: WP2 UVRA, Metabolic Activation: NONE, Method: SPOT): active; positive

SMILES: Cc1ccc2ccc3cc4ccccc4cc3c2c1
- mutagenic call (Test System: AMES SALMONELLA TYPHIMURIUM, Strain/Indicator: TA100, Metabolic Activation: RAT, INTACT HEPATOCYTES, AROCLOR 1254, Method: PREINCUBATION): inactive; negative
- mutagenic call (Test System: AMES SALMONELLA TYPHIMURIUM, Strain/Indicator: TA100, Metabolic Activation: RAT, NADPH-FORTIFIED HOMOGENIZED HEPATOCYTES, AROCLOR 1254, Method: PREINCUBATION): active; positive
- mutagenic call (Test System: AMES SALMONELLA TYPHIMURIUM, Strain/Indicator: TA100, Metabolic Activation: RAT, SONICATED HEPATOCYTES, AROCLOR 1254, Method: PREINCUBATION): active; positive

SMILES: O=[N+]([O-])c1c2ccccc2cc2ccccc12
- mutagenic call [1]: active; positive
- mutagenic call [2]: active; positive
- mutagenic call [3]: active; positive
- mutagenic call (Test System: AMES SALMONELLA TYPHIMURIUM, Strain/Indicator: TA98, Metabolic Activation: RAT, LIVER, S-9, AROCLOR 1254 (10%), Method: PREINCUBATION): active; positive
- mutagenic call [4]: active; positive
- mutagenic call (Test System: AMES SALMONELLA TYPHIMURIUM, Strain/Indicator: TA98, Metabolic Activation: RAT, LIVER, S-9, Method: STANDARD PLATE): active; positive
- mutagenic call [5]: active; positive
- mutagenic call [6]: active; positive
- mutagenic call [7]: inactive; negative
- mutagenic call (Test System: AMES SALMONELLA TYPHIMURIUM, Strain/Indicator: TA100, Metabolic Activation: RAT, LIVER, S-9, AROCLOR 1254 (10%), Method: PREINCUBATION): active; positive
- mutagenic call [8]: active; positive
- mutagenic call (Test System: AMES SALMONELLA TYPHIMURIUM, Strain/Indicator: TA100, Metabolic Activation: RAT, LIVER, S-9, Method: STANDARD PLATE): inactive; negative

SMILES: CC(=O)O[C@H]1C[C@@H]2C(COC(=O)CC(C)C)=CO[C@@H](OC(=O)CC(C)C)[C@@H]2[C@@]12CO2
- mutagenic call [3]: inactive; negative
- mutagenic call (Test System: AMES SALMONELLA TYPHIMURIUM, Strain/Indicator: TA98, Metabolic Activation: RAT, LIVER, S-9, AROCLOR 1254, Method: STANDARD PLATE): inactive; negative
- mutagenic call [7]: inactive; negative
- mutagenic call [9]: active; positive
- mutagenic call [10]: inactive; negative
- mutagenic call (Test System: AMES SALMONELLA TYPHIMURIUM, Strain/Indicator: TA1535, Metabolic Activation: RAT, LIVER, S-9, AROCLOR 1254, Method: STANDARD PLATE): inactive; negative
- mutagenic call [11]: inactive; negative
- mutagenic call [12]: inactive; negative
- mutagenic call (Test System: E. COLI, Strain/Indicator: WP2, Metabolic Activation: NONE, Method: STANDARD PLATE): inactive; negative
- mutagenic call (Test System: E. COLI, Strain/Indicator: WP2, Metabolic Activation: RAT, LIVER, S-9, AROCLOR 1254, Method: STANDARD PLATE): active; positive
- mutagenic call (Test System: E. COLI, Strain/Indicator: WP2 UVRA, Metabolic Activation: NONE, Method: STANDARD PLATE): active; positive
- mutagenic call (Test System: E. COLI, Strain/Indicator: WP2 UVRA, Metabolic Activation: RAT, LIVER, S-9, AROCLOR 1254, Method: STANDARD PLATE): active; positive
